From patent publication US11008333B2, “Crystalline forms of hydrochloride salts of thienopyrimidine compound” (HANMI PHARM. CO., LTD., priority 2015, dated 2021)
Values after ≈ are worked out from the molar mass of the structure shown. Read-outs that look alike come from different tables or passages of the source.

Legend:
[1] = Dynamic vapor sorption (DVS), water absorption / hygroscopicity; type: physicochemical
Description: Dynamic vapor sorption (DVS) analysis was performed in a DVS advantage (Surface measurement system, United Kingdom) analyzer at 25° C. with a relative humidity of 0% to 90%. A sample in an amount of 10 mg was placed into a wire-mesh vapor sorption balance pan and then attached to a DVS advantage dynamic vapor sorption balance via surface measurement systems. Until a stable weight was achieved (99.5% completion of steps), the sample was applied to a ramping profile with a relative humidity of 10% to 90% with a 10% increase of the sample while maintaining the sample in each step. Upon completion of the sorption cycle, the sample was dried using the same process while maintaining a relative humidity of […]. The changes in the sample weight during the adsorption/desorption cycle (repeated 3 times) were recorded and the hygroscopicity of the sample was measured.

[2] = Measurement of water solubility (HPLC); type: physicochemical; conditions: for pH of solution: solution of the water solubility test, 100 mg/mL in water
Description: Specifically, each sample of the polymorphs in an amount of 500 mg was added to 5 mL of water, blended at […] to 25° C. using a Voltamixer, and filtered with a GH Polypro membrane Acrodisc, PALL (pore size: 0.2 μm). The filtrate was diluted with a diluent used for HPLC in a 1:100 ratio to obtain the samples.

[3] = Storage under long-term, accelerated and stress testing conditions; type: physicochemical; conditions: for expected stability: expectation from DVS
[4] = test system: mutant epidermal growth factor receptor tyrosine kinase; conditions: disclosed in WO 2011/162515; cited from earlier work
[5] = test system: cancer cells induced by a mutation in epidermal growth factor receptor (EGFR) tyrosine kinase; conditions: disclosed in WO 2011/162515; cited from earlier work
[6] = relative humidity of 10% to 70%
[7] = relative humidity of 70% or higher
[8] = non-ionic water, 500 mg in 5 mL (conc. of solution 100 mg/mL), 2θ° C. to 25° C., amount dissolved based on compound of Formula 1, HPLC
[9] = relative humidity of 40% or higher
[10] = relative humidity of 10% to 90%, 25° C.
[11] = accelerated condition (40° C., relative humidity 75%)
[12] = long-term storage condition (25° C., relative humidity 60%)

## C=CC(=O)Nc1cccc(Oc2nc(Nc3ccc(N4CCN(C)CC4)cc3)nc3ccsc23)c1 [Example 7, N-(3-(2-(4-(4-methylpiperazin-1-yl)phenylamino)thieno[3,2-d]pyrimidin-4-yloxy)phenyl)acrylamide]
[1]; [6]
  level of water absorption (hygroscopicity) in DVS: very low
[1]; relative humidity of 10% to 90%, 25° C., listed as ex. 7
  level of water absorption (hygroscopicity) in DVS: about 14%
[1]; [7]
  level of water absorption (hygroscopicity) in DVS: about 14%

## C=CC(=O)Nc1cccc(Oc2nc(Nc3ccc(N4CCN(C)CC4)cc3)nc3ccsc23)c1 [Example 4, N-(3-(2-(4-(4-methylpiperazin-1-yl)phenylamino)thieno[3,2-d]pyrimidin-4-yloxy)phenyl)acrylamide]
[2]; [8]
  Solubility: 10.66 mg/mL (≈ 21.9 mM)
[2]
  pH of solution: 1.7
[1]; relative humidity of 10% to 30%
  level of water absorption (hygroscopicity) in DVS: very high
[1]; relative humidity of 10% to 30%, listed as ex. 4
  level of water absorption (hygroscopicity) in DVS: about 6%
[1]; [9]
  level of water absorption (hygroscopicity) in DVS: very weak
[1]; relative humidity of 40% or higher, listed as ex. 4
  level of water absorption (hygroscopicity) in DVS: very low and constant level

## C=CC(=O)Nc1cccc(Oc2nc(Nc3ccc(N4CCN(C)CC4)cc3)nc3ccsc23)c1 [Example 6, N-(3-(2-(4-(4-methylpiperazin-1-yl)phenylamino)thieno[3,2-d]pyrimidin-4-yloxy)phenyl)acrylamide]
[2]; [8]
  Solubility: 0.57 mg/mL (≈ 1.17 mM)
[2]
  pH of solution: 4.9
[1]; [10]
  level of water absorption (hygroscopicity) in DVS: about 2%
[1]; relative humidity of 10% to 90%, 25° C., listed as ex. 6
  level of water absorption (hygroscopicity) in DVS: about 2%

## C=CC(=O)Nc1cccc(Oc2nc(Nc3ccc(N4CCN(C)CC4)cc3)nc3ccsc23)c1 [Example 3, N-(3-(2-(4-(4-methylpiperazin-1-yl)phenylamino)thieno[3,2-d]pyrimidin-4-yloxy)phenyl)acrylamide]
[2]; [8]
  Solubility: 7.76 mg/mL (≈ 15.9 mM)
[2]
  pH of solution: 2.1
[1]; relative humidity of 10% to 40%
  level of water absorption (hygroscopicity) in DVS: very low level
[1]; [9]
  level of water absorption (hygroscopicity) in DVS: about 9%
[1]; relative humidity of 40% or higher, listed as ex. 3
  level of water absorption (hygroscopicity) in DVS: about 9%

## C=CC(=O)Nc1cccc(Oc2nc(Nc3ccc(N4CCN(C)CC4)cc3)nc3ccsc23)c1 [Comparative Example 1, N-(3-(2-(4-(4-methylpiperazin-1-yl)phenylamino)thieno[3,2-d]pyrimidin-4-yloxy)phenyl)acrylamide]
[1]; [10]
  level of water absorption (hygroscopicity) in DVS: very high level
[3]; [11]
  expected stability: unstable
[3]; [12]
  expected stability: unstable

## C=CC(=O)Nc1cccc(Oc2nc(Nc3ccc(N4CCN(C)CC4)cc3)nc3ccsc23)c1 [Example 5, N-(3-(2-(4-(4-methylpiperazin-1-yl)phenylamino)thieno[3,2-d]pyrimidin-4-yloxy)phenyl)acrylamide]
[2]; [8]
  Solubility: 0.42 mg/mL (≈ 0.863 mM)
[2]
  pH of solution: 4.7
[1]; [6]
  level of water absorption (hygroscopicity) in DVS: very low
[1]; relative humidity of 10% to 70%, listed as ex. 5
  level of water absorption (hygroscopicity) in DVS: very low level
[1]; [7]
  level of water absorption (hygroscopicity) in DVS: about 7%
[1]; relative humidity of 70% or higher, listed as ex. 5
  level of water absorption (hygroscopicity) in DVS: about 7%

## C=CC(=O)Nc1cccc(Oc2nc(Nc3ccc(N4CCN(C)CC4)cc3)nc3ccsc23)c1 [Formula 1 (amorphous free base), N-(3-(2-(4-(4-methylpiperazin-1-yl)phenylamino)thieno[3,2-d]pyrimidin-4-yloxy)phenyl)acrylamide]
[2]; [8]
  Solubility: 0.0001 mg/mL
[2]
  pH of solution: 7.3
[2]; water, 20 °C, water, thermodynamic from solid, amorphous free base, read-out: water solubility
  Solubility: < 0.0001 mg/mL
[4]
  inhibitory activity for mutant EGFR tyrosine kinase: selective inhibitory activity
[5]
  inhibitory activity against growth of cancer cells induced by EGFR mutation, and drug resistance thereof: selective and effective inhibitory activity

## C=CC(=O)Nc1cccc(Oc2nc(Nc3ccc(N4CCN(C)CC4)cc3)nc3ccsc23)c1 [Example 1, N-(3-(2-(4-(4-methylpiperazin-1-yl)phenylamino)thieno[3,2-d]pyrimidin-4-yloxy)phenyl)acrylamide]
[2]; comparison of Table 16
  water solubility compared with the other forms: highest water solubility
[2]; [8]
  Solubility: 50.39 mg/mL (≈ 104 mM)
[2]
  pH of solution: 1.7
[1]; complete range of 0-90% RH
  reversible water sorption and desorption in DVS: about 3%
[1]; [10]
  level of water absorption (hygroscopicity) in DVS: 2-3%
[1]; relative humidity of 10% to 90%, 25° C., listed as ex. 1
  level of water absorption (hygroscopicity) in DVS: very low level of change
[3]; [11]
  stability: fully stable
[3]; [12]
  stability: fully stable
[3]; stress testing condition (60° C.)
  stability: fully stable
